Changes are numbered by the printed parent chain.
Tests used:
Test in all cases: Thymol modulation of GABA concentration-response curves, two electrode voltage clamp in Xenopus oocytes
Format in all cases: cell-based
[1] = biological target: T1, N-7′H mutant Drosophila RDL receptor (Drosophila melanogaster, UniProt P25123, N292H); conditions: N-7′H RDL
T1 construct: expressed in transfected cells; host or cells: Xenopus laevis oocytes injected with cRNA
T1 sequence (P25123 45-606 N292H): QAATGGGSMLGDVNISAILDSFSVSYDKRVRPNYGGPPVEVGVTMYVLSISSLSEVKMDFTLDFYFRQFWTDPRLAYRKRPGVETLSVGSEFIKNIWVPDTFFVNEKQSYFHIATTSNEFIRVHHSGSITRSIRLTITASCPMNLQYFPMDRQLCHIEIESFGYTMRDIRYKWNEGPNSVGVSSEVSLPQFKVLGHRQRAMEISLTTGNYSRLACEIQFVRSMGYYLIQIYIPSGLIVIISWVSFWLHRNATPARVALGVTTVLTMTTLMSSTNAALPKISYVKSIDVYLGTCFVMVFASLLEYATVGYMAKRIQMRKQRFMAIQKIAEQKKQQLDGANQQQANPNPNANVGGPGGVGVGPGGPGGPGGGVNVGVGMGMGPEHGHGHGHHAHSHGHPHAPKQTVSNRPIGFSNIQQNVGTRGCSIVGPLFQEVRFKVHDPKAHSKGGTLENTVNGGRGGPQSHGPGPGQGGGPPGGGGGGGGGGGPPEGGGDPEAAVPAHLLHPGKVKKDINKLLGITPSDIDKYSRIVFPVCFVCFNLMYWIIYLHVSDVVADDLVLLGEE
Experimental: (§1) X. laevis oocyte-positive females were purchased from NASCO (Fort Atkinson, Wisconsin, USA) and maintained according to standard methods. Harvested stage V-VI Xenopus oocytes were washed in four changes of ND96 (96 mM NaCl, 2 mM KCl, 1 mM MgCl2, 1 mM CaCl2, 5 mM HEPES, pH 7.5), de-folliculated in 1.5 mg ml^−1 collagenase Type 1A for approximately 2 h, washed again in four changes of ND96 and stored in ND96 containing 2.5 mM sodium pyruvate, 0.7 mM theophylline and […].
(§2) Site directed mutagenesis was performed with the QuikChange mutagenesis kit (Agilent, La Jolla, CA). cRNA was transcribed in vitro from linearised pGEMHE cDNA template using the mMessage mMachine T7 Transcription kit (Ambion, Austin, Texas, USA). Stage V and VI oocytes were injected with 5 ng cRNA, incubated at 18 °C, and currents recorded 18–24 h post-injection.
(§3) Currents were recorded at 5 kHz and filtered at a frequency of 1 kHz. Micro-electrodes were fabricated from borosilicate glass (GC120TF-10, Harvard Apparatus, Edenbridge, Kent, UK) using a one stage horizontal pull (P-87, Sutter Instrument Company, California, USA) and filled with 3 M KCl. […] Oocytes were perfused with ND96 at a constant rate of 12 ml min^−1. Drug application was via a simple gravity fed system calibrated to run at the same rate.
(§4) Analysis and curve fitting was performed using Prism v5 (GraphPad Software, San Diego, California, USA). Concentration-response data for each oocyte was normalised to the maximum current for that oocyte. The mean and S.E.M. for a series of oocytes were fitted to the four parameter logistic equation in Prism.

[2] = biological target: T2, T6′M mutant Drosophila RDL receptor (Drosophila melanogaster, UniProt P25123, T305M)
T2 construct: expressed in transfected cells; host or cells: Xenopus laevis oocytes injected with cRNA
T2 sequence (P25123 45-606 T305M): T1 sequence (P25123 45-606 N292H) with H248N, T261M
Experimental: as §1, §2, §3, §4

[3] = biological target: T3, A21′Q mutant Drosophila RDL receptor (Drosophila melanogaster, UniProt P25123, A320Q)
T3 construct: expressed in transfected cells; host or cells: Xenopus laevis oocytes injected with cRNA
T3 sequence (P25123 45-606 A320Q): T1 sequence (P25123 45-606 N292H) with H248N, A276Q
Experimental: as §1, §2, §3, §4

[4] = GABA EC50 control vs +100 μM thymol
[5] = GABA concentration-response in presence of 100 μM thymol

Cc1ccc(C(C)C)c(O)c1 [Thymol, thymol]
Effect of thymol on GABA-induced responses ([1]; 100 μM thymol, 1 μM GABA): enhance | Fold change in EC50 [1, 4]: 2.7 | % Imax [1, 5]: 82 ± 4% | Effect of thymol on GABA-induced responses ([2]; 100 μM thymol, at some GABA concentrations): inhibition | Fold change in EC50 [2, 4]: 3.4 | % Imax [2, 5]: 35 ± 9% | Effect of thymol on GABA-induced responses ([3]; 100 μM thymol, 1 μM GABA): enhance | Fold change in EC50 [3, 4]: 3.6 | % Imax [3, 5]: 89 ± 4%

From PMC4261083, “An atypical residue in the pore of Varroa destructor GABA-activated RDL receptors affects picrotoxin block and thymol modulation” (Insect Biochemistry and Molecular Biology, 2014)
